In brackets after ≈: the same amount, converted by molar mass.
What was measured:
[1] = Chemopreventive activity in Chinese hamster embryonic cells assessed as inhibition of benzo[a]pyrene metabolism to water soluble derivatives; assay type: functional, Cricetulus griseus; details: for IC50: Cricetulus griseus, read-out: ID50 (the source's name)
[2] = Cytotoxicity against mouse 9PS cells; assay type: functional; details: for EC50: Mus musculus, read-out: ED50 (the source's name)
A549 = assay: Cytotoxicity against human A549 cells; assay type: functional; details: read-out: ED50 (the source's name)
HT-29 = assay: Cytotoxicity against human HT-29 cells; assay type: functional; details: for EC50: Homo sapiens, HT-29, read-out: ED50 (the source's name)
[3] = Cytotoxicity against human 9KB cells; assay type: functional; details: read-out: ED50 (the source's name)
MCF7 = assay: Cytotoxicity against human MCF7 cells; assay type: functional; details: read-out: ED50 (the source's name)
P388 [4] = assay: In vivo antitumor activity against mouse P388 cells at 50 mg/kg relative to control; assay type: functional
[5] = Chemopreventive activity in Chinese hamster embryonic cells assessed as inhibition of benzo[a]pyrene metabolism at 10 to 25 ug/ml; assay type: functional, Cricetulus griseus
P388 [6] = assay: In vivo antitumor activity against mouse P388 cells at 20 mg/kg relative to control; assay type: functional

Row | SMILES | EC50 (A549) [µg/mL] | EC50 (HT-29) [µg/mL] | EC50 (MCF7) [µg/mL] | other results
1 | COc1cccc(C/C(=N/OS(=O)(=O)O)S[C@@H]2O[C@H](CO)[C@@H](O)[C@H](O)[C@H]2O)c1 [GLUCOLIMNANTHIN] |  |  |  | inhibition (INH) [1]: 71%
2 | COc1ccc(-c2coc3cc(OC)cc(OC)c3c2=O)cc1 [BIOCHANIN A, DIMETHYL ETHER] |  |  |  | IC50 [1]: 50 µg/mL (≈ 160 µM)
3 | O=c1cc(-c2ccccc2)oc2cc(O)cc(O)c12 [CHRYSIN] |  |  |  | IC50 [1]: 12 µg/mL (≈ 47.2 µM)
4 | CCCCCCCCCCCC[C@@H](O)[C@H]1CC[C@H]([C@H](O)CCCC[C@H](O)CCCCC[C@@H](O)CC2=CC(C)OC2=O)O1 (some centres undefined) [ANNONACIN] | 0.001 (≈ 0.00168 µM) | 3 (≈ 5.03 µM) |  | ED50 [2]: 1 ×10⁻⁵ ug/ml
5 | COc1ccc(-c2cc(=O)c3c(O)cc(O)cc3o2)cc1 [ACACETIN] |  |  |  | IC50 [1]: 15 µg/mL (≈ 52.8 µM)
6 | CCCCCCCCCCCC[C@H](O)[C@@H]1CC[C@@H]([C@@H](O)CCCCC(O)CCCCCC2CC(CC(C)=O)C(=O)O2)O1 (some centres undefined) [ISOANNONACIN] | 0.02 (≈ 0.0335 µM) | 0.002 (≈ 0.00335 µM) |  | EC50 [2]: 3 µg/mL (≈ 5.03 µM)
7 | COc1ccc2c(c1O)-c1c(OC)cc(O)c3c1[C@@H]1[C@H](CC3=O)c3ccccc3O[C@@H]21 [OHIOENSIN E] | 6 (≈ 14.4 µM) | > 10 | > 10 | EC50 [3]: > 10 µg/mL; EC50 [2]: 1 µg/mL (≈ 2.4 µM)
8 | COc1cc2c(c3oc4c(O)cccc4c(=O)c13)C[C@H]([C@](C)(O)CO)O2 | > 10 | 2.3 (≈ 6.42 µM) | > 10 | 
9 | O=c1cc(-c2ccc(O)cc2)oc2cc(O)cc(O)c12 [APIGENIN] |  |  |  | IC50 [1]: 17 µg/mL (≈ 62.9 µM)
10 | O=C1C[C@@H]2c3ccccc3O[C@H]3c4cc(O)ccc4-c4c(O)cc(O)c1c4[C@H]23 [OHIOENSIN A] | > 10 | > 10 | 9 (≈ 24.2 µM) | EC50 [3]: > 10 µg/mL; EC50 [2]: 1 µg/mL (≈ 2.69 µM)
11 | COc1cc(O)c2c3c1-c1c(O)cccc1[C@@H]1Oc4ccccc4[C@@H](CC2=O)[C@@H]31 [OHIOENSIN C] | > 10 | 4 (≈ 10.4 µM) | 3 (≈ 7.76 µM) | EC50 [3]: 10 µg/mL (≈ 25.9 µM); EC50 [2]: > 10 µg/mL
12 | COc1cc(C2Oc3c(OC)cc4c(=O)c5c(OC)cccc5oc4c3OC2CO)cc(OC)c1O (centres undefined) | > 10 | > 10 | > 10 | 
13 | COc1cc(O)c2c3c1-c1c(ccc(O)c1O)[C@@H]1Oc4ccccc4[C@@H](CC2=O)[C@@H]31 [OHIOENSIN D] | > 10 | > 10 | > 10 | EC50 [3]: > 10 µg/mL; EC50 [2]: 1 µg/mL (≈ 2.49 µM)
14 | O=C1C[C@@H]2c3ccccc3O[C@H]3c4cccc(O)c4-c4c(O)cc(O)c1c4[C@H]23 [OHIOENSIN B] | 8 (≈ 21.5 µM) | > 10 | 7 (≈ 18.8 µM) | EC50 [3]: > 10 µg/mL; EC50 [2]: 1 µg/mL (≈ 2.69 µM)
15 | CC(C)[C@H]1OC(=O)C=C2[C@@]13O[C@@H]3[C@H]1OC(=O)[C@@]3(C)C=CC[C@@]2(C)[C@@H]13 [PODOLIDE] |  |  |  | T/C (P388 [4]): 127%
16 | COc1ccc(-c2coc3cc(O)cc(O)c3c2=O)cc1 [BIOCHANIN] |  |  |  | IC50 [1]: 25 µg/mL (≈ 87.9 µM); inhibition (INH) [5]: 30%
17 | COc1cc(C2Oc3ccc4c(=O)c5c(O)cc(O)cc5oc4c3OC2CO)cc(OC)c1O (centres undefined) | 3 (≈ 6.4 µM) | 0.4 (≈ 0.854 µM) | > 10 | 
18 | COc1cc2c(c3oc4c(O)cccc4c(=O)c13)C[C@H]([C@](C)(O)COC(C)=O)O2 | 2 (≈ 5 µM) | 0.016 (≈ 0.04 µM) | 2.5 (≈ 6.24 µM) | 
19 | COc1cc(C2Oc3c(OC)cc4c(=O)c5ccccc5oc4c3OC2CO)cc(OC)c1O (centres undefined) | > 10 | > 10 | > 10 | 
20 | COc1cc(C2Oc3c(OC)cc4c(=O)c5c(OC)cccc5oc4c3OC2COC(C)=O)ccc1O (centres undefined) | 4 (≈ 7.87 µM) | 4 (≈ 7.87 µM) | > 10 | 
21 | COc1cc(C2Oc3c(OC)cc4c(=O)c5c(OC)cccc5oc4c3OC2CO)ccc1O (centres undefined) | > 10 | > 10 | > 10 | 
22 | O=c1c(-c2ccc(O)cc2)coc2cc(O)cc(O)c12 [GENISTEIN] |  |  |  | IC50 [1]: 30 µg/mL (≈ 111 µM)
23 | COc1cc2c(c3oc4c(O)cccc4c(=O)c13)C[C@H]([C@@]1(C)CO1)O2 [PSOROSPERMIN] | 0.0016 (≈ 0.0047 µM) |  | 0.012 (≈ 0.0353 µM) | ED50 (HT-29): >1 ×10⁻⁵ ug/ml
24 | COc1ccc(-c2coc3cc(OC)cc(O)c3c2=O)cc1 [4',7-DIMETHOXY-5-HYDROXYGENISTEIN] |  |  |  | IC50 [1]: > 50 µg/mL
25 | C[S+]([O-])C[C@@](C)(O)[C@H]1OC(=O)C=C2[C@@]13O[C@@H]3[C@H]1OC(=O)[C@@]3(C)[C@H]4O[C@H]4C[C@@]2(C)[C@@H]13 (some centres undefined) [PODOLACTONE C] |  |  |  | T/C (P388 [6]): 151%
26 | CC(C)c1oc(=O)cc2c1[C@@H](O)[C@H]1OC(=O)[C@@]3(C)[C@@H](O)[C@H]4O[C@H]4[C@@]2(C)[C@@H]13 [NAGILACTONE C] |  |  |  | T/C (P388 [6]): 145%
27 | COc1cc(C2Oc3c(OC)cc4c(=O)c5ccccc5oc4c3OC2CO)ccc1O (centres undefined) | 3 (≈ 6.87 µM) | 3 (≈ 6.87 µM) | > 10 | 
28 | COc1cc2c(c3oc4c(O)cccc4c(=O)c13)[C@@H]1OC[C@@](C)(O)[C@@H]1O2 [PSOROFEBRIN] | > 10 | 8.5 (≈ 23.9 µM) | > 10 | 
29 | CCCCCCCCCCCC[C@@H](O)[C@H]1CC[C@H]([C@H](O)CCCCC(=O)CCCCC[C@@H](O)CC2=C[C@H](C)OC2=O)O1 [ANNONACINONE] | 0.1 (≈ 0.168 µM) | 1 (≈ 1.68 µM) |  | ED50 [2]: 1 ×10⁻⁶ ug/ml
30 | CCCCCCCCCCCC[C@H](O)[C@@H]1CC[C@@H]([C@@H](O)CCCCC(=O)CCCCCC2CC(CC(C)=O)C(=O)O2)O1 (some centres undefined) [ISOANNONACINONE] | 0.07 (≈ 0.118 µM) | 0.009 (≈ 0.0151 µM) |  | EC50 [2]: 0.5 µg/mL (≈ 0.841 µM)
